Several values for one entry are separate records, joined by “and”; a condition that tells them apart may be missing. Equal values may be shown once.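 Each compound was tested at five concentrations against cells in 96-well plates for 48 hours. GI50 = concentration required for 50% inhibition of growth. TGI: concentration producing complete growth inhibition.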
What was measured:
Test in all cases: NCI tumour cell line growth inhibition, 48 h
[1] = tested on: SK-MEL-28 melanoma
[2] = tested on: NCI-H23 lung
[3] = tested on: SF-539 CNS
[4] = tested on: SK-OV-3 ovarian
[5] = tested on: ACHN renal
[6] = tested on: MALME-3M melanoma
[7] = tested on: KM12 colon
[8] = tested on: HCT-15 colon
[9] = tested on: HL-60(TB) leukemia
[10] = tested on: A498 renal

Row | SMILES | TGI [1] | TGI [2] | TGI [3] | TGI [4] | TGI [5] | TGI [6] | TGI [7] | TGI [8] | TGI [9] | TGI [10] | GI50 [1] | GI50 [2] | GI50 [3] | GI50 [4] | GI50 [5] | GI50 [7] | GI50 [8] | GI50 [9] | GI50 [10] | GI50 [6]
1 | CC(=O)OCCOCNC(=S)N/N=C/c1ccc2ccccc2n1 | > 100 µM | > 100 µM | > 100 µM | > 100 µM | > 100 µM | > 100 µM | > 100 µM | > 100 µM | > 100 µM | > 100 µM | – | – | – | – | – | – | – | – | – | –
2 | C[C@@H](C1CCC2C3C(=CC(=O)[C@@]21C)[C@H](C)[C@]1(CCC(=O)O1)C1OC31)[C@H]1C[C@]2(C)O[C@@](C)(O1)OC2(C)C (stereo not given in full) | > 100 µM | > 100 µM | > 100 µM | > 100 µM | > 100 µM | – | – | > 100 µM | > 100 µM | > 100 µM | – | – | – | – | – | – | – | – | – | –
3 | COc1cc(-c2nn(-c3ccc(NC(=O)Nc4ccc(Cl)c(Cl)c4)cc3)cc2-c2ccncc2)ccc1Cl | 17.9 µM | 32.3 µM | 33.6 µM | > 100 µM | > 100 µM | – | 7.41 µM | 14.1 µM | > 100 µM | 8.27 µM | 3.94 µM | 3.26 µM | 2.89 µM | 3.96 µM | 3.35 µM | 2.62 µM | 2.88 µM | 3.55 µM | 2 µM | –
4 | O=C1c2ccccc2C(=O)C2C1C1C(=O)c3ccccc3C(=O)C21 (stereo not given) | > 100 µM | > 100 µM | > 100 µM | > 100 µM | > 100 µM | > 100 µM | > 100 µM | > 100 µM | > 100 µM | – | – | – | – | – | – | – | – | – | – | –
5 | CC1(C)C(c2ccccc2)=NN(O)c2ccccc21 | > 100 µM | > 100 µM | > 100 µM | > 100 µM | – | > 100 µM | > 100 µM | > 100 µM | > 100 µM | > 100 µM | – | – | – | – | – | – | – | – | – | –
6 | O=c1oc2cc(N=Cc3ccccc3Cl)ccc2c2ccccc12 | > 100 µM | > 100 µM | > 100 µM | – | > 100 µM | > 100 µM | > 100 µM | > 100 µM | > 100 µM | > 100 µM | – | – | – | – | – | – | – | – | – | –
7 | COc1cc2ccccc2c2cc([N+](=O)[O-])oc12 | 0.695 µM | 4.18 µM | 7.75 µM | > 71.7 µM | – | 0.418 µM | 4.68 µM | 23.7 µM | > 31.2 µM | 0.342 µM | – | – | – | – | – | – | – | – | – | –
8 | O=C(c1ccccc1)C(c1ccccc1)C1(O)C(=O)Nc2ccccc21 (stereo not given) | > 100 µM | > 100 µM | > 100 µM | > 100 µM | > 100 µM | > 100 µM | – | > 100 µM | > 100 µM | > 100 µM | – | – | – | – | – | – | – | – | – | –
9 | CC1=CCC2(C#N)CCC1C2O (stereo not given) | > 100 µM | – | > 100 µM | > 100 µM | > 100 µM | > 100 µM | > 100 µM | > 100 µM | > 100 µM | > 100 µM | – | – | – | – | – | – | – | – | – | –
10 | O=C(O)c1c[nH]c2c(=O)[nH]cnc12 | > 100 µM | > 100 µM | – | > 100 µM | > 100 µM | > 100 µM | > 100 µM | > 100 µM | > 100 µM | – | – | – | – | – | – | – | – | – | – | –
11 | NC(C/[N+]([O-])=N/O)C(=O)O (stereo not given) | > 500 µM | > 100 µM and 154 µM | > 100 µM and 366 µM | > 100 µM and 300 µM | > 500 µM | > 487 µM | 31.1 µM and > 100 µM and 144 µM | > 100 µM and 329 µM | > 100 µM and 176 µM | – | > 47.8 µM and > 100 µM and 24.5 µM | 3.85 µM and 12.6 µM and 1.61 µM | – | 58 µM and > 100 µM and 55.7 µM | 2.98 µM | 0.543 µM | 3.65 µM and 6.69 µM and 1.8 µM | – | – | 62.1 µM
12 | O=C(/C=C1\C(=O)N(Cc2ccc([N+](=O)[O-])cc2)c2ccccc21)c1ccc(OCCN2CCCCC2)cc1 | 2.89 µM | 2.97 µM | 2.89 µM | 11.7 µM | 2.38 µM | 2.74 µM | 3.54 µM | 2.48 µM | – | 18 µM | 1.53 µM | 1.47 µM | 1.53 µM | 2.78 µM | 1.16 µM | 1.81 µM | 1.19 µM | – | 4.09 µM | 1.22 µM
13 | CC1(C)C(c2ccccc2)C12CCC1(C2=O)C(c2ccccc2)C1(C)C (stereo not given) | 78.3 µM | 44.6 µM | 75.2 µM | – | 39 µM | 72.5 µM | – | 51.8 µM | 37.4 µM | 90.7 µM | – | – | – | – | – | – | – | – | – | –
14 | CNC(=S)N/N=C1\CC(c2ccccc2)Oc2ccccc21 (stereo not given) | > 100 µM | > 100 µM | > 100 µM | > 100 µM | > 100 µM | > 100 µM | > 100 µM | – | – | – | – | – | – | – | – | – | – | – | – | –
15 | C=CCC1C(=O)C(C(=O)OC)N2CCc3c([nH]c4ccccc34)C12 (stereo not given) | > 100 µM | > 100 µM | > 100 µM | > 100 µM | – | > 100 µM | > 100 µM | > 100 µM | > 100 µM | > 100 µM | – | – | – | – | – | – | – | – | – | –
16 | N#CCCN(CCC#N)C(=O)c1cccc(C(=O)N(CCC#N)CCC#N)c1 | – | > 56 µM | > 55.3 µM | > 100 µM | > 100 µM | > 100 µM | > 100 µM | > 100 µM | > 73.3 µM | > 100 µM | – | – | – | – | – | – | – | – | – | –
17 | O=C(COc1ccc(/C=C2\Oc3ccccc3C2=O)cc1)Nc1nccs1 | > 100 µM | > 100 µM | > 100 µM | > 100 µM | > 100 µM | > 100 µM | > 100 µM | > 100 µM | – | > 100 µM | > 100 µM | 49.8 µM | 32.5 µM | > 100 µM | > 100 µM | 8.08 µM | > 100 µM | – | 54.1 µM | > 100 µM
18 | COc1cc2c(c(OC)c1OC)C(=O)CC(c1cccc(NC(=O)c3ccc(Br)cc3)c1)O2 (stereo not given) | > 100 µM | > 100 µM | > 100 µM | > 100 µM | > 100 µM | 7.39 µM | – | > 100 µM | 4.14 µM | 8.15 µM | 2.98 µM | 2.87 µM | 3.86 µM | 4.32 µM | 3.02 µM | – | 2.31 µM | 1.58 µM | 1.55 µM | 1.47 µM
19 | O=C(C/C(=N\NC(=O)C[n+]1ccccc1)C(=O)Nc1nc2ccc([N+](=O)[O-])cc2s1)CC(c1ccccc1)c1c(O)c2ccccc2oc1=O (stereo not given) | > 100 µM | > 100 µM | > 100 µM | > 100 µM | > 100 µM | > 100 µM | > 100 µM | – | > 100 µM | > 100 µM | – | – | – | – | – | – | – | – | – | –

Reference: PubChem BioAssay (NCI)
